Data from the supplement of paper PMC13380429.

Legend:
Conditions in all cases: 72 h
[1] = tested on: Caco-2; experiment: drug sensitivity score (DSS) for viability; higher = more toxic; extreme values may be limits of the assay
[2] = tested on: U2OS; experiment: as above
[3] = tested on: HepG2; experiment: as above
[4] = tested on: Calu-3; experiment: as above
[5] = tested on: Vero E6; experiment: as above
[6] = tested on: Caco-2; experiment: relative viability EC50 (midpoint between 100% and the lowest measured viability); higher = less toxic
[7] = tested on: U2OS; experiment: as above
[8] = tested on: HepG2; experiment: as above
[9] = tested on: Calu-3; experiment: as above
[10] = tested on: Vero E6; experiment: as above
[11] = tested on: Caco-2; experiment: cell viability relative to DMSO; higher = less toxic
[12] = tested on: U2OS; experiment: as above
[13] = tested on: HepG2; experiment: as above
[14] = tested on: Calu-3; experiment: as above
[15] = tested on: Vero E6; experiment: as above

Structure (SMILES)	drug sensitivity score [1]	drug sensitivity score [2]	drug sensitivity score [3]	drug sensitivity score [4]	drug sensitivity score [5]	relative viability EC50 [6] [µM]	relative viability EC50 [7] [µM]	relative viability EC50 [8] [µM]	relative viability EC50 [9] [µM]	relative viability EC50 [10] [µM]	cell viability ([11]; 1 nM) [%]	cell viability ([11]; 10 nM) [%]	cell viability ([11]; 100 nM) [%]	cell viability ([11]; 1000 nM) [%]	cell viability ([11]; 10000 nM) [%]	cell viability ([12]; 1 nM) [%]	cell viability ([12]; 10 nM) [%]	cell viability ([12]; 100 nM) [%]	cell viability ([12]; 1000 nM) [%]	cell viability ([12]; 10000 nM) [%]	cell viability ([13]; 1 nM) [%]	cell viability ([13]; 10 nM) [%]	cell viability ([13]; 100 nM) [%]	cell viability ([13]; 1000 nM) [%]	cell viability ([13]; 10000 nM) [%]	cell viability ([14]; 1 nM) [%]	cell viability ([14]; 10 nM) [%]	cell viability ([14]; 100 nM) [%]	cell viability ([14]; 1000 nM) [%]	cell viability ([14]; 10000 nM) [%]	cell viability ([15]; 1 nM) [%]	cell viability ([15]; 10 nM) [%]	cell viability ([15]; 100 nM) [%]	cell viability ([15]; 1000 nM) [%]	cell viability ([15]; 10000 nM) [%]
O=C(O[C@H]1[C@H](OC(=O)c2cccnc2)[C@@H](OC(=O)c2cccnc2)[C@H](OC(=O)c2cccnc2)[C@@H](OC(=O)c2cccnc2)[C@H]1OC(=O)c1cccnc1)c1cccnc1 [inositol-hexanicotinate]	0	0	0	0	0	> 10	> 10	> 10	> 10	> 10	92.2	88.9	103	89.3	91.2	92.4	90.5	99	98.5	99.4	90.9	112	89.1	96.5	94.6	102	93.3	100	103	110	105	102	90.9	93.7	113
Cc1cc(C)n(-c2cccc([C@H](CC(=O)O)CN3CC[C@@H](CCc4ccc5c(n4)NCCC5)C3)c2)n1 [integrin-antagonist-1]	0	0	0	0	0	> 10	> 10	> 10	> 10	> 10	104	102	94.4	99	105	104	95.6	104	103	97.2	107	97.8	104	97.8	99.9	92.1	98	101	96.6	98.4	99.2	102	105	95	99.1
O=C(Nc1cnn2ccc(N3CCC[C@@H]3c3cc(F)ccc3F)nc12)N1CC[C@H](O)C1 [larotrectinib]	0	0	0	0	0	> 10	> 10	> 10	> 10	> 10	93.9	92.8	85.3	101	86	97.2	105	97.9	98.1	99.6	98.1	108	103	105	103	96.8	106	94.9	94.7	112	97.9	94.3	101	105	93.6
CCC/C=C1\OC(=O)C2=C1CCC=C2 [ligustilide]	0.1	0	0	0	0	> 10	> 10	> 10	> 10	> 10	100	104	113	122	83.6	96.2	101	101	95.4	94.7	106	106	111	94.6	110	100	88.8	103	101	106	93.8	101	102	100	106
N#C/C(=C1/SC[C@@H](c2ccc(Cl)cc2Cl)S1)n1ccnc1 [luliconazole]	0	0	0	0	0	> 10	> 10	> 10	> 10	> 10	102	98.1	96.7	90.6	89.7	100	100	98.9	96.7	96.9	104	105	97.5	105	96	95.8	109	96.8	95.7	89.6	101	99	93.8	102	94.5
Cc1ccc(Nc2c(F)cccc2Cl)c(CC(=O)O)c1 [lumiracoxib]	0	0	0	0	0	> 10	> 10	> 10	> 10	> 10	93	97	95	100	107	94.1	98.7	94.8	103	105	97	103	109	106	118	93.7	93.9	90.8	98.9	104	95.4	94.8	105	100	100
C=CCc1ccc(O)c(-c2cc(CC=C)ccc2O)c1 [magnolol]	0	0	0	0	0	> 10	> 10	> 10	> 10	> 10	104	95.3	88.6	102	89.5	96.7	102	99.2	102	95.3	97.8	85.7	97.8	102	106	99.3	90.3	90.3	99.4	110	98.6	98.3	98.9	101	94.8
CN1C[C@@H](NS(=O)(=O)N(C)C)C[C@@H]2c3cccc4c3c(cn4C)C[C@H]21 [mesulergine]	0	0	0	0	0	> 10	> 10	> 10	> 10	> 10	108	102	105	98.9	108	103	100	101	101	99.9	101	99.3	106	108	100	111	106	107	96.1	102	97.5	104	94.1	97.9	94.9
Clc1ccc(C(c2ccccc2Cl)C(Cl)Cl)cc1 (stereo not given) [mitotane]	0	0	0	0	0	> 10	> 10	> 10	> 10	> 10	100	90.7	97.9	99.4	91.9	98.5	93.2	98.6	97.7	97.7	89.9	89.9	87.9	85.4	94.6	92.8	102	89.1	97.1	99.6	106	96.6	101	101	97.6
O=C(OCCN1CCOCC1)c1cccnc1Nc1cccc(C(F)(F)F)c1 [morniflumate]	0.5	0	0	0	0	> 10	> 10	> 10	> 10	> 10	120	103	99	102	80.1	96.5	104	97.8	97.8	97.3	90.8	93.8	87.3	94.7	88.4	91.9	97.1	102	106	108	107	100	102	105	99.3
O=C1C[C@@H](c2ccc(O)cc2)Oc2cc(O)cc(O)c21 [naringenin]	0	0	0	0	0	> 10	> 10	> 10	> 10	> 10	114	103	90.3	97.2	88.5	98.9	104	95.6	102	103	104	107	99.3	95.1	99.9	93.2	97.9	89.9	99.7	93.7	101	99.7	101	94	93.3
NCCCCCC(O)(P(=O)(O)O)P(=O)(O)O [neridronic-acid]	0.6	0	0.3	0	0	> 10	> 10	> 10	> 10	> 10	108	95	88.9	107	76.5	99.9	95.9	98.8	92.8	108	100	110	111	97.9	86.2	90.2	83.3	92	93.9	106	91.5	95.8	92.8	94.2	96.8
Oc1ccc2c3c1O[C@H]1c4[nH]c5c(c4C[C@@]4(O)[C@@H](C2)N(CC2CC2)CC[C@]314)C[C@@]1(O)[C@H]2Cc3ccc(O)c4c3[C@@]1(CCN2CC1CC1)[C@H]5O4 [nor-binaltorphimine]	0	0	0	0	0	> 10	> 10	> 10	> 10	> 10	97.9	90.4	100	102	106	103	109	106	98.6	99	93.7	108	111	105	99.2	105	99.9	100	106	102	92.5	98.3	91.2	95.7	108
